# Reference: patent US12371454B2, “Cyclic peptide compound having Kras inhibitory action” (priority 2019, dated 2025)
# pIC50: −log10 of the molar value. Positions of bridges follow the written chain, without caps; N, C: chain ends. Non-standard residues stand in square brackets, D forms with d. Residues, ends and D or L forms follow the SMILES beside them. *: point of attachment. hPhe(3-Cl-4-CF3) = N[C@@H](CCc1ccc(C(F)(F)F)c(Cl)c1)C(=O)O; NMeDab(N,N-(CH2CF2CH2)) = CN[C@@H](CCN1CC(F)(F)C1)C(=O)O; hPhe(4-CF3) = N[C@@H](CCc1ccc(C(F)(F)F)cc1)C(=O)O; NMeAla(4-thiazolyl) = CN[C@@H](Cc1cscn1)C(=O)O; NMePhe(4-Cl) = CN[C@@H](Cc1ccc(Cl)cc1)C(=O)O; NMeGly(cPent) = CN[C@H](C(=O)O)C1CCCC1; Phe(3-F) = N[C@@H](Cc1cccc(F)c1)C(=O)O; Phe(3-I) = N[C@@H](Cc1cccc(I)c1)C(=O)O; NMeCha = CN[C@@H](CC1CCCCC1)C(=O)O; Azetidine(3,3-F2) = FC1(F)CN(*)C1; NMeF = CN[C@@H](Cc1ccccc1)C(=O)O; N(CH2CH2)2CF2 = FC1(F)CCN(*)CC1; NMeD = CN[C@@H](CC(=O)O)C(=O)O; NMeL = CN[C@@H](CC(C)C)C(=O)O; NMeV = CN[C@H](C(=O)O)C(C)C; d(β3hA) = C[C@@H](N)CC(=O)O; Pip = O=C(O)[C@@H]1CCCCN1; NMeA = CN[C@@H](C)C(=O)O; NMeAib = CNC(C)(C)C(=O)O; Nle = CCCC[C@H](N)C(=O)O; Piperidide = C1CCN(*)CC1; Pyrrolidide = C1CCN(*)C1; Aze = O=C(O)[C@@H]1CCN1; Nva = CCC[C@H](N)C(=O)O; Aib = CC(C)(N)C(=O)O; Sar = CNCC(=O)O; Propyl = CCC*
# Target: T1, Kras and SOS1 (biotin-tagged human Kras loaded with GDP, His-tagged human SOS1) (Homo sapiens, UniProt P01116, G12D)
# T1 construct: made in house; host or cells: E. coli (stated for Kras only)
# T1 sequence (P01116 1-188 isoform P01116-2 G12D): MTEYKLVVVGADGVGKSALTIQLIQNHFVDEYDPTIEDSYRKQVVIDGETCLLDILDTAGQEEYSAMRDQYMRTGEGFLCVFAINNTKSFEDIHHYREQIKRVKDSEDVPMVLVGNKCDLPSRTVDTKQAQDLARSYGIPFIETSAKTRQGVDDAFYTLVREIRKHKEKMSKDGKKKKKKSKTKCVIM
# Test: Protein-protein interaction inhibition between Kras and SOS1 (KrasGl2D-SOS PPI) using AlphaScreen
# Type: binding
# Details: AlphaScreen; biotin-tagged human Kras loaded with GDP, His-tagged human SOS1; read-out: KRAS G12D-SOS PPI IC50
# Outline: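 Binding between SOS1 and Kras is detected as bead-proximity luminescence: illuminate Ni-conjugated donors (680 nm), collect 520-620 nm emission from streptavidin-conjugated acceptors; Kras carries biotin and GDP loaded after purification, SOS1 carries a His tag.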
row,Structure (SMILES),pIC50
1,"CCCOC[C@@H]1NC(=O)[C@H](CCN2CC(F)(F)C2)N(C)C(=O)[C@H](CCc2ccc(C(F)(F)F)c(Cl)c2)NC(=O)CN(C)C(=O)[C@H](CC2CCCCC2)N(C)C(=O)[C@@H]2CCN2C(=O)[C@H](C)N(C)C(=O)[C@H]([C@@H](C)CC)NC(=O)[C@H](CC(C)C)N(C)C(=O)C[C@@H](C(=O)N(C)C)N(C)C(=O)[C@H](C2CCCC2)N(C)C1=O [Compound 817] ([NMeL]I[NMeA][Aze][NMeCha][Sar][hPhe(3-Cl-4-CF3)][NMeDab(N,N-(CH2CF2CH2))]S(Propyl)[NMeGly(cPent)][NMeD]-NMe2; lactam N-11)",7.82
2,CC[C@H](C)[C@@H]1NC(=O)[C@H](CC(C)C)N(C)C(=O)C[C@@H](C(=O)N(C)C)N(C)C(=O)[C@H](C2CCCC2)N(C)C(=O)[C@H](C)NC(=O)[C@H](Cc2cscn2)N(C)C(=O)[C@H](CCc2ccc(C(F)(F)F)c(Cl)c2)NC(=O)CN(C)C(=O)[C@H](CC2CCCCC2)N(C)C(=O)[C@@H]2CCN2C(=O)[C@H](C)N(C)C1=O [Compound 805] ([NMeL]I[NMeA][Aze][NMeCha][Sar][hPhe(3-Cl-4-CF3)][NMeAla(4-thiazolyl)]A[NMeGly(cPent)][NMeD]-NMe2; lactam N-11),7.42
3,CC[C@H](C)[C@@H]1NC(=O)[C@@H]2CCCCN2C(=O)C[C@@H](C)NC(=O)[C@H](CC(C)C)N(C)C(=O)C(C)(C)NC(=O)[C@H](CC(C)C)N(C)C(=O)[C@H](CCc2ccc(C(F)(F)F)cc2)NC(=O)CN(C)C(=O)[C@H](Cc2ccc(Cl)cc2)N(C)C(=O)CN(C)C(=O)CN(C)C1=O [Compound 286] (cyclo([Aib][NMeL][d(β3hA)][Pip]I[Sar][Sar][NMePhe(4-Cl)][Sar][hPhe(4-CF3)][NMeL])),7.02
4,"CC[C@H](C)[C@@H]1NC(=O)[C@H](C)N(C)C(=O)C[C@@H](C(=O)N2CCCCC2)N(C)C(=O)[C@H](C2CCCCC2)N(C)C(=O)C2(CCCC2)NC(=O)[C@@H]2CCCN2C(=O)[C@H](COc2ccc(Cl)cc2)NC(=O)CN(C)C(=O)[C@H](CC2CCCCC2)N(C)C(=O)CN(C)C(=O)CN(C)C1=O [Compound 2042, (3S,9S,18S,21S,25S,28S,34S)-3-[(4-chlorophenoxy)methyl]-28-cyclohexyl-9-(cyclohexylmethyl)-7,10,13,16,21,22,26,29-octamethyl-18-[(1S)-1-methylpropyl]-25-(piperidine-1-carbonyl)spiro[1,4,7,10,13,16,19,22,26,29,32-undecazabicyclo[32.3.0]heptatriacontane-31,1′-cyclopentane]-2,5,8,11,14,17,20,23,27,30,33-undecone]",7.15
5,"CC[C@H](C)[C@@H]1NC(=O)[C@H](C)N(C)C(=O)C[C@@H](C(=O)N2CCCCC2)N(C)C(=O)[C@H](C(C)C)N(C)C(=O)[C@H](CC(C)C)NC(=O)[C@H](CC(=O)N2CC(F)(F)C2)N(C)C(=O)[C@H](CCc2ccc(C(F)(F)F)c(Cl)c2)NC(=O)CN(C)C(=O)[C@H](CC2CCCCC2)N(C)C(=O)CN(C)C(=O)CN(C)C1=O [Compound 190] ([NMeA]I[Sar][Sar][NMeCha][Sar][hPhe(3-Cl-4-CF3)][NMeD](Azetidine(3,3-F2))L[NMeV][NMeD]-Piperidide; lactam N-11)",6.82
6,CCCC[C@@H]1NC(=O)[C@H](Cc2cccc(I)c2)NC(=O)CN(C)C(=O)[C@H](Cc2ccc(Cl)cc2)N(C)C(=O)CN(C)C(=O)CN(C)C(=O)[C@H]([C@@H](C)CC)NC(=O)[C@H](CC(C)C)N(C)C(=O)C[C@@H](C(=O)N2CCCC2)N(C)C(=O)[C@H](CCC)NC(=O)C(C)(C)N(C)C1=O [Compound 1410] ([NMeL]I[Sar][Sar][NMePhe(4-Cl)][Sar][Phe(3-I)][Nle][NMeAib][Nva][NMeD]-Pyrrolidide; lactam N-11),6.57
7,CC[C@H](C)[C@@H]1NC(=O)[C@H](CC(C)C)N(C)C(=O)C[C@@H](C(=O)N2CCCCC2)N(C)C(=O)[C@H](C(C)C)N(C)C(=O)[C@H](C)NC(=O)[C@H](CC(=O)N2CCC(F)(F)CC2)N(C)C(=O)[C@H](CCc2ccc(C(F)(F)F)c(Cl)c2)NC(=O)CN(C)C(=O)[C@H](CC2CCCCC2)N(C)C(=O)CN(C)C(=O)CN(C)C1=O [Compound 444] ([NMeL]I[Sar][Sar][NMeCha][Sar][hPhe(3-Cl-4-CF3)][NMeD](N(CH2CH2)2CF2)A[NMeV][NMeD]-Piperidide; lactam N-11),7.74
8,CC[C@H](C)[C@@H]1NC(=O)[C@H](C)N(C)C(=O)C[C@@H](C(=O)N2CCCC2)NC(=O)[C@H](C(C)C)N(C)C(=O)[C@H](Cc2ccccc2)N(C)C(=O)[C@H](Cc2ccccc2)NC(=O)[C@H](Cc2cccc(F)c2)NC(=O)CN(C)C(=O)[C@H](Cc2ccc(Cl)cc2)N(C)C(=O)CN(C)C(=O)CN(C)C1=O [Compound 184] ([NMeA]I[Sar][Sar][NMePhe(4-Cl)][Sar][Phe(3-F)]F[NMeF][NMeV]D-Pyrrolidide; lactam N-11),6.49
